Measurements from patent US8852928B2, “LexA-based chemical-inducible gene expression system for use in transgenic animals” (Temasek Life Sciences Laboratory Limited, priority 2007, dated 2014).

Legend:
LexPR transactivator [1] = molecular target: T1, LexPR transactivator (Homo sapiens, UniProt P06401); assay: Time required to switch off EGFP reporter expression after mifepristone withdrawal; format: in vivo, zebrafish; set-up: key to Reporter expression, RU486 incubation / Reporter expression after RU486 withdrawal / Reporter expression, continuous induction (time of RU486 incubation): +: Fluorescence signal is similar to the control.; ±: Fluorescence signal is obviously weaker that in control.; −: No EGFP fluorescence (except autofluorescence)observed using the fluorescent stereomicroscope
T1 construct: expressed in transfected cells; host or cells: germline-transgenic zebrafish (Danio rerio) carrying the Ds transposon driver cassette pDs(krt8:LPR-LOP:G4) or derivatives
T1 sequence (P06401 640-914): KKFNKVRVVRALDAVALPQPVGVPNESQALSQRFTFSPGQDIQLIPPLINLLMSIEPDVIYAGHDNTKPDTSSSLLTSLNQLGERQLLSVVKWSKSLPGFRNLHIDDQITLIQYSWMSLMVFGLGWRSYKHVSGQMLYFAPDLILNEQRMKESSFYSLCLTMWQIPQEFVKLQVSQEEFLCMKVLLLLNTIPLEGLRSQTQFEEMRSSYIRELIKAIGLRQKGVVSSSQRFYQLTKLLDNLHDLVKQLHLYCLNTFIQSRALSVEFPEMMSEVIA
From the text: To avoid confusion, the corresponding developmental times are indicated. A Nikon SMZ1600 fluorescent stereomicroscope was used for rough estimation of the EGFP fluorescence.

LexPR transactivator [2] = molecular target: T1, LexPR transactivator; assay: Inducible expression of EGFP-KrasV12 in transgenic zebrafish; format: in vivo; settings: 10 μM at 10 hpf onwards
From the text: Transgenic zebrafish line harboring insertion of the binary driver construct Ds(krt8:LPR-LOP:EGFP-Kras^V12) containing EGFP-Kras^V12 under control of the LexOP, F2 (FIG. 12a-12e, FIG. 12g). FIG. 12a: 24 hpf, no induction. […] FIG. 12f: Transgenic fish harboring the unmodified driver-reporter construct pDs(krt8:LPR-LOP:G4) containing EGFP gene under control of the LexOP.

LexPR transactivator [3] = molecular target: T1, LexPR transactivator; assay: Mifepristone-induced EGFP reporter fluorescence in LexPR driver-reporter transgenic fish; format: in vivo, zebrafish
From the text: Generating transgenic fish using Ac/Ds transposon system: Transgenic fish carrying insertions of the driver and effector constructs containing Ds cis-required sequences (as described herein) were generated as previously described (Emelyanov et al., 2006). 5-10 pg of plasmid DNA was co-injected into zebrafish embryos (yolk center) with 25-50 pg of in vitro synthesized transposase mRNA at the 1-2-cell stage. […] Only the lines that segregated as a single locus (produced 1:1 ratio when outcrossed to nontransgenic fish) were selected.

## CC#C[C@]1(O)CC[C@H]2[C@@H]3CCC4=CC(=O)CCC4=C3[C@@H](c3ccc(N(C)C)cc3)C[C@@]21C [mifepristone]
LexPR transactivator [1]; 100 nM, 1 hour RU486 incubation, 12 h after withdrawal, 49hpf
  Reporter expression after RU486 withdrawal: +
LexPR transactivator [1]; 100 nM, 1 hour RU486 incubation, 24 h after withdrawal, 61hpf
  Reporter expression after RU486 withdrawal: +
LexPR transactivator [1]; 100 nM, 1 hour RU486 incubation, 48 h after withdrawal, 85hpf
  Reporter expression after RU486 withdrawal: −
LexPR transactivator [1]; 100 nM, 1 hour RU486 incubation, 72 h after withdrawal, 109hpf
  Reporter expression after RU486 withdrawal: −
LexPR transactivator [1]; 100 nM, 1 hour RU486 incubation, 96 h after withdrawal, 133hpf
  Reporter expression after RU486 withdrawal: −
LexPR transactivator [1]; 100 nM, 1 hour RU486 incubation, 120 h after withdrawal, 157hpf
  Reporter expression after RU486 withdrawal: −
LexPR transactivator [1]; 100 nM, 1 hour RU486 incubation, 144 h after withdrawal, 181hpf
  Reporter expression after RU486 withdrawal: −
LexPR transactivator [1]; 100 nM, 1 hour induction
  Minimal time after RU486 withdrawal to turn off the reporter expression: 2 days
LexPR transactivator [1]; 100 nM, 12 hours RU486 incubation - withdrawal, at 12 h incubation, 48hpf
  Reporter expression, RU486 incubation: +
LexPR transactivator [1]; 100 nM, 12 hours RU486 incubation, 12 h after withdrawal, 60hpf
  Reporter expression after RU486 withdrawal: +
LexPR transactivator [1]; 100 nM, 12 hours RU486 incubation, 24 h after withdrawal, 72hpf
  Reporter expression after RU486 withdrawal: ±
LexPR transactivator [1]; 100 nM, 12 hours RU486 incubation, 48 h after withdrawal, 96hpf
  Reporter expression after RU486 withdrawal: ±
LexPR transactivator [1]; 100 nM, 12 hours RU486 incubation, 72 h after withdrawal, 120hpf
  Reporter expression after RU486 withdrawal: −
LexPR transactivator [1]; 100 nM, 12 hours RU486 incubation, 96 h after withdrawal, 144hpf
  Reporter expression after RU486 withdrawal: −
LexPR transactivator [1]; 100 nM, 12 hours RU486 incubation, 120 h after withdrawal, 168hpf
  Reporter expression after RU486 withdrawal: −
LexPR transactivator [1]; 100 nM, 12 hours RU486 incubation, 144 h after withdrawal, 192hpf
  Reporter expression after RU486 withdrawal: −
LexPR transactivator [1]; 100 nM, 12 hours induction
  Minimal time after RU486 withdrawal to turn off the reporter expression: 3 days
LexPR transactivator [1]; 100 nM, 24-156 h incubation, 60-192 hpf
  Reporter expression, continuous induction (time of RU486 incubation): +
LexPR transactivator [1]; 100 nM, 1 h incubation
  Reporter expression, continuous induction (time of RU486 incubation): −
LexPR transactivator [1]; 100 nM, 12 h incubation
  Reporter expression, continuous induction (time of RU486 incubation): +
LexPR transactivator [1]; 100 nM, 13 h incubation, 49hpf
  Reporter expression, continuous induction (time of RU486 incubation): +
LexPR transactivator [1]; 100 nM, 24 h incubation, 60hpf
  Reporter expression, continuous induction (time of RU486 incubation): +
LexPR transactivator [1]; 1 μM, 1 hour RU486 incubation - withdrawal, at 1 h incubation, 37hpf
  Reporter expression, RU486 incubation: −
LexPR transactivator [1]; 1 μM, 1 hour RU486 incubation, 12 h after withdrawal, 49hpf
  Reporter expression after RU486 withdrawal: +
LexPR transactivator [1]; 1 μM, 1 hour RU486 incubation, 24 h after withdrawal, 61hpf
  Reporter expression after RU486 withdrawal: +
LexPR transactivator [1]; 1 μM, 1 hour RU486 incubation, 48 h after withdrawal, 85hpf
  Reporter expression after RU486 withdrawal: +
LexPR transactivator [1]; 1 μM, 1 hour RU486 incubation, 72 h after withdrawal, 109hpf
  Reporter expression after RU486 withdrawal: ±
LexPR transactivator [1]; 1 μM, 1 hour RU486 incubation, 96 h after withdrawal, 133hpf
  Reporter expression after RU486 withdrawal: ±
LexPR transactivator [1]; 1 μM, 1 hour RU486 incubation, 120 h after withdrawal, 157hpf
  Reporter expression after RU486 withdrawal: −
LexPR transactivator [1]; 1 μM, 1 hour RU486 incubation, 144 h after withdrawal, 181hpf
  Reporter expression after RU486 withdrawal: −
LexPR transactivator [1]; 1 μM, 1 hour induction
  Minimal time after RU486 withdrawal to turn off the reporter expression: 5 days
LexPR transactivator [1]; 1 μM, 12 hours RU486 incubation - withdrawal, at 12 h incubation, 48hpf
  Reporter expression, RU486 incubation: +
LexPR transactivator [1]; 1 μM, 12 hours RU486 incubation, 12 h after withdrawal, 60hpf
  Reporter expression after RU486 withdrawal: +
LexPR transactivator [1]; 1 μM, 12 hours RU486 incubation, 24 h after withdrawal, 72hpf
  Reporter expression after RU486 withdrawal: +
LexPR transactivator [1]; 1 μM, 12 hours RU486 incubation, 48 h after withdrawal, 96hpf
  Reporter expression after RU486 withdrawal: +
LexPR transactivator [1]; 1 μM, 12 hours RU486 incubation, 72 h after withdrawal, 120hpf
  Reporter expression after RU486 withdrawal: ±
LexPR transactivator [1]; 1 μM, 12 hours RU486 incubation, 96 h after withdrawal, 144hpf
  Reporter expression after RU486 withdrawal: ±
LexPR transactivator [1]; 1 μM, 12 hours RU486 incubation, 120 h after withdrawal, 168hpf
  Reporter expression after RU486 withdrawal: ±
LexPR transactivator [1]; 1 μM, 12 hours RU486 incubation, 144 h after withdrawal, 192hpf
  Reporter expression after RU486 withdrawal: −
LexPR transactivator [1]; 1 μM, 12 hours induction
  Minimal time after RU486 withdrawal to turn off the reporter expression: 6 days
LexPR transactivator [1]; 1 μM, 24-156 h incubation, 60-192 hpf
  Reporter expression, continuous induction (time of RU486 incubation): +
LexPR transactivator [1]; 1 μM, 1 h incubation
  Reporter expression, continuous induction (time of RU486 incubation): −
LexPR transactivator [1]; 1 μM, 12 h incubation
  Reporter expression, continuous induction (time of RU486 incubation): +
LexPR transactivator [1]; 1 μM, 13 h incubation, 49hpf
  Reporter expression, continuous induction (time of RU486 incubation): +
LexPR transactivator [1]; 1 μM, 24 h incubation, 60hpf
  Reporter expression, continuous induction (time of RU486 incubation): +
LexPR transactivator [1]; following 12 hours treatment with 1 μM
  Duration of EGFP fluorescence in mifepristone-free water: 5 days
LexPR transactivator [2]
  Effect of induced EGFP-KrasV12 expression on F2 embryos: embryo development was severely affected
LexPR transactivator [3]; 1 nM
  Reporter expression at lowest inducible concentration: significantly weaker reporter expression
LexPR transactivator [3]; 10 nM, after 24 hours of incubation
  EGFP expression induced: Strong EGFP expression
LexPR transactivator [3]; 1 μM and 100 nM final concentration in growth water
  Time until EGFP fluorescence was observed after adding mifepristone: 6 to 9 h
LexPR transactivator [3]; EGFP reporter, growth water
  Lowest inducible concentration: 1 nM
LexPR transactivator [3]; in the growth water
  Concentration required for effective transcription induction: 0.01 to 1 µM
